What was measured:
[1] = tested on: E. globulus hypocotyl sections; experiment: E. globulus gene introduction test, vector pIAH6 (ipt + iaaH + GUS), adventitious bud redifferentiation and GUS staining; format: cell-based, Eucalyptus globulus; conditions: for B Adventitious bud differentiated (number of sections): 3 months after infection; for B/A Redifferentiation ratio / C/A Gene introduction ratio / C/B Selection efficiency: section basis
Experimental: Using a plasmid pIAH6 as a vector having a GUS gene as a model of a desired gene and an ipt gene and an iaaH gene as selectable marker genes, a transformant was produced by carrying out gene introduction into Eucalyptus globulus (hereinafter referred to as “E. globulus”) by the method of the present invention. Seeds of E. globulus from Chile were sterilized by soaking in 70% ethanol for about 1 minute and then soaking with stirring in a 2% aqueous sodium hypochlorite solution for about 4 hours, washed thoroughly with sterile water, inoculated on an MS agar medium to which 0.5 mg/l zeatin had been added and stored in a refrigerator at 4° C. for 2 days to accelerate germination, and then the germination was carried out by culturing at 25° C. under light conditions of about 10 μmol/m^2/s in light intensity. One to two weeks after the inoculation of the seeds onto the germination medium, hypocotyls were collected by cutting out apical buds, cotyledons and roots of the germinated seedlings, and the hypocotyls were cut into sections of about 5 mm to be used as samples for gene introduction and subjected to the following test. A. tumefaciens EHA105 introduced with the plasmid pIAH6 in the above item I was cultured overnight in the YEB liquid medium and then diluted to OD630 =0.5 with EG basal medium, and the sections of hypocotyl prepared in the above were soaked in the cell suspension. Next, each of the sections after removing excess cell suspension was co-cultured with Agrobacterium on an agar medium (agar 8.5 g/l) prepared by adding 1.0 mg/l zeatin, 0.05 mg/l NAA and 40 mg/l acetosyringone to the EG basal medium, at 25° C. for 3 days in the dark to thereby infect each section with the pIAH6-introduced Agrobacterium. In this case, a modified MS medium having an ammonia nitrogen/nitrate nitrogen concentration ratio of 1:3 (5 mM NH4, 15 mM NO3) was supplemented with 20 g/l sucrose and used as the EG basal medium. The sections after infection culturing were put on an EG basal agar medium (agar 8.5 g/l) supplemented with 500 mg/l ticarcillin and 1 μM or 10 μM of an auxin precursor analogue NAM, and the culturing was continued at 25° C. under light conditions of 30 to 40 μmol/m^2/s in light intensity while sub-culturing at an interval of 2 weeks using the same medium. Among these sections, the quicker ones redifferentiated adventitious buds after about 2 months of the Agrobacterium infection. Three months after the Agrobacterium infection, in order to examine expression of the GUS gene used as a model of the desired gene, the redifferentiated adventitious buds were subjected to a GUS staining test in accordance with the method of Jefferson et al. (Plant Mol. Biol. Rep., 5: 387-405 (1987)), and the degree of formation of desired gene-introduced adventitious buds was judged by examining the number of stained adventitious buds (the number of adventitious buds expressing the desired gene). An E. globulus gene introduction test was carried out in the same manner as in Example 1, except that the hypocotyl sections after the Agrobacterium infection were cultured using the EG basal agar medium (agar 8.5 g/l) supplemented with 500 mg/l ticarcillin and 0 μM, 1 μM or 10 μM NAA as auxin.

[2] = tested on: stem sections of a high rooting clone of E. globulus; experiment: gene introduction test on high rooting clone of E. globulus, vector pIPT10; format: cell-based, Eucalyptus globulus; conditions: same manner as Example 3 (NAM 1 μM)
Experimental: Definite buds of a high rooting clone of E. globulus from Chile were aseptically grown using a medium prepared by adding 0.5 mg/l zeatin to the Y basal medium of Example 2, and the elongated stems were cut into sections of 5 mm to be used as samples for gene introduction and infected with the plasmid pIAH6-introduced Agrobacterium in the same manner as in Example 1. The sections after infection culturing were put on an EG basal agar medium (agar 8.5 g/l) supplemented with 500 mg/l ticarcillin and 1 μM of an auxin precursor analogue NAM, and the culturing was continued at 25° C. under light conditions of 30 to 40 μmol/m^2/s in light intensity while sub-culturing at an interval of 2 weeks using the same medium. Four months after the Agrobacterium infection, the redifferentiated adventitious buds were subjected to a GUS staining test in accordance with the above method of Jefferson et al., and the degree of formation of desired gene-introduced adventitious buds was judged. Using plasmid pIPT10 as the vector, a gene introduction test was carried out into a high rooting clone of E. globulus in the same manner as in Example 3.

[3] = NAM 1 μM in medium, 60 sections tested
[4] = NAM 10 μM in medium, 48 sections tested

NC(=O)Cc1cccc2ccccc12 [NAM, naphthaleneacetic acid amide]
C GUS + adventitious bud differentiated (number of sections) [1, 3]: 8 number of sections
B Adventitious bud differentiated (number of sections) [1, 3]: 21 number of sections
B/A Redifferentiation ratio ([1]; NAM 1 μM in medium): 35.0%
C/A Gene introduction ratio ([1]; NAM 1 μM in medium): 13.3%
C/B Selection efficiency ([1]; NAM 1 μM in medium): 38.1%
C GUS + adventitious bud differentiated (number of sections) [1, 4]: 1 number of sections
B Adventitious bud differentiated (number of sections) [1, 4]: 2 number of sections
B/A Redifferentiation ratio ([1]; NAM 10 μM in medium): 4.2%
C/A Gene introduction ratio ([1]; NAM 10 μM in medium): 2.1%
C/B Selection efficiency ([1]; NAM 10 μM in medium): 50.0%
redifferentiated individuals into which the desired gene was introduced [2]: not obtained
redifferentiation of adventitious buds [2]: not redifferentiated

Source: US20040163143A1, “Method for efficiently producing transgenic plant using auxin precursor” (NIPPON PAPER INDUSTRIES CO., LTD., priority 2002, published 2004)
